Experimental findings from paper PMC6891286, “Towards the Development of an In vivo Chemical Probe for Cyclin G Associated Kinase (GAK)” (Molecules, 2019) are described below.

Common to all, as to assay: KINOMEscan
Assay type in all cases: binding
What all share (settings): 35 at 1 µM; read-out: % inhibition

One experiment deals with T1, ACVR1B (Homo sapiens, UniProt P36896).
T1 construct: purchased Eurofins DiscoverX (KINOMEscan)
On the procedure: (§1) KinomeScan Assay on 35 was performed as previously described at EuroFins DiscoverX (Fremont, CA, USA).

The next experiment concerns the target T2, PIK3CA (Homo sapiens, UniProt P42336).
T2 construct: purchased Eurofins DiscoverX (KINOMEscan)
As to the method: as §1

The target of the next experiment is T3, ULK3 (Homo sapiens, UniProt Q6PHR2).
T3 construct: purchased Eurofins DiscoverX (KINOMEscan)
On the procedure: as §1

The next experiment deals with T4, FGFR1 (Homo sapiens, UniProt P11362).
T4 construct: purchased Eurofins DiscoverX (KINOMEscan)
On the procedure:
as §1

A further experiment has as its target T5, RET(V804L) (Homo sapiens, UniProt P07949, V804L).
T5 construct: purchased Eurofins DiscoverX (KINOMEscan)
As to the method: as §1

The next experiment has as its target T6, EGFR(E746-A750del) (Homo sapiens, UniProt P00533, DEL746-750).
T6 construct: purchased Eurofins DiscoverX (KINOMEscan)
As to the method:
as §1

A further experiment has as its target T7, CSNK2A2 (Homo sapiens, UniProt P19784).
T7 construct: purchased Eurofins DiscoverX (KINOMEscan)
As to the method:
as §1

In the next experiment the target is T8, ASK1 (Homo sapiens, UniProt Q99683).
T8 construct: purchased Eurofins DiscoverX (KINOMEscan)
As to the method: as §1

A further experiment has as its target T9, NEK3 (Homo sapiens, UniProt P51956).
T9 construct: purchased Eurofins DiscoverX (KINOMEscan)
As to the method:
as §1

The next experiment deals with T10, VEGFR2 (Homo sapiens, UniProt P35968).
T10 construct: purchased Eurofins DiscoverX (KINOMEscan)
On the procedure:
as §1

The target of the next experiment is T11, CHEK2 (Homo sapiens, UniProt O96017).
T11 construct: purchased Eurofins DiscoverX (KINOMEscan)
As to the method:
as §1

Experiment [1] has as its target T12, ABL1(H396P)-phosphorylated (Homo sapiens, UniProt P00519, H396P).
T12 construct: purchased Eurofins DiscoverX (KINOMEscan)
On the procedure:
as §1

The next experiment addresses T13, MKNK2 (Homo sapiens, UniProt Q9HBH9).
T13 construct: purchased Eurofins DiscoverX (KINOMEscan)
As to the method: as §1

The target in the next experiment is T14, PRKD1 (Homo sapiens, UniProt Q15139).
T14 construct: purchased Eurofins DiscoverX (KINOMEscan)
As to the method:
as §1

The target of the next experiment is T15, TRKC (Homo sapiens, UniProt Q16288).
T15 construct: purchased Eurofins DiscoverX (KINOMEscan)
On the procedure: as §1

A further experiment concerns the target T16, SRC (Homo sapiens, UniProt P12931).
T16 construct: purchased Eurofins DiscoverX (KINOMEscan)
On the procedure:
as §1

Each structure is given as a SMILES string.

T16 sequence (P12931 whole entry): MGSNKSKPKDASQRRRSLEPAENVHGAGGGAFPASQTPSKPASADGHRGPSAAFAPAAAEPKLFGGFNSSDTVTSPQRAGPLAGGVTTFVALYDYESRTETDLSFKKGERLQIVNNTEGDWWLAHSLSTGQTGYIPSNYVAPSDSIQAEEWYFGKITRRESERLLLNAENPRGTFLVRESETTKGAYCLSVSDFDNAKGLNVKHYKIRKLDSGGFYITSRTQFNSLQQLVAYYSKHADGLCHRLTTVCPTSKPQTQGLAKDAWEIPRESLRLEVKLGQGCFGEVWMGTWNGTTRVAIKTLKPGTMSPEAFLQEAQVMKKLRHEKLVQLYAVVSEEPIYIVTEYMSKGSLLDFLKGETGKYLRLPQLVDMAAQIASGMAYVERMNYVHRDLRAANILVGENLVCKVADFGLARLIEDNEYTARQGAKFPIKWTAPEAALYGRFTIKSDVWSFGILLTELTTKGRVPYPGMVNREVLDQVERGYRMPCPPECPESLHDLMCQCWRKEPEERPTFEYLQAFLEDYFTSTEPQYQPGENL
T8 sequence (Q99683 whole entry): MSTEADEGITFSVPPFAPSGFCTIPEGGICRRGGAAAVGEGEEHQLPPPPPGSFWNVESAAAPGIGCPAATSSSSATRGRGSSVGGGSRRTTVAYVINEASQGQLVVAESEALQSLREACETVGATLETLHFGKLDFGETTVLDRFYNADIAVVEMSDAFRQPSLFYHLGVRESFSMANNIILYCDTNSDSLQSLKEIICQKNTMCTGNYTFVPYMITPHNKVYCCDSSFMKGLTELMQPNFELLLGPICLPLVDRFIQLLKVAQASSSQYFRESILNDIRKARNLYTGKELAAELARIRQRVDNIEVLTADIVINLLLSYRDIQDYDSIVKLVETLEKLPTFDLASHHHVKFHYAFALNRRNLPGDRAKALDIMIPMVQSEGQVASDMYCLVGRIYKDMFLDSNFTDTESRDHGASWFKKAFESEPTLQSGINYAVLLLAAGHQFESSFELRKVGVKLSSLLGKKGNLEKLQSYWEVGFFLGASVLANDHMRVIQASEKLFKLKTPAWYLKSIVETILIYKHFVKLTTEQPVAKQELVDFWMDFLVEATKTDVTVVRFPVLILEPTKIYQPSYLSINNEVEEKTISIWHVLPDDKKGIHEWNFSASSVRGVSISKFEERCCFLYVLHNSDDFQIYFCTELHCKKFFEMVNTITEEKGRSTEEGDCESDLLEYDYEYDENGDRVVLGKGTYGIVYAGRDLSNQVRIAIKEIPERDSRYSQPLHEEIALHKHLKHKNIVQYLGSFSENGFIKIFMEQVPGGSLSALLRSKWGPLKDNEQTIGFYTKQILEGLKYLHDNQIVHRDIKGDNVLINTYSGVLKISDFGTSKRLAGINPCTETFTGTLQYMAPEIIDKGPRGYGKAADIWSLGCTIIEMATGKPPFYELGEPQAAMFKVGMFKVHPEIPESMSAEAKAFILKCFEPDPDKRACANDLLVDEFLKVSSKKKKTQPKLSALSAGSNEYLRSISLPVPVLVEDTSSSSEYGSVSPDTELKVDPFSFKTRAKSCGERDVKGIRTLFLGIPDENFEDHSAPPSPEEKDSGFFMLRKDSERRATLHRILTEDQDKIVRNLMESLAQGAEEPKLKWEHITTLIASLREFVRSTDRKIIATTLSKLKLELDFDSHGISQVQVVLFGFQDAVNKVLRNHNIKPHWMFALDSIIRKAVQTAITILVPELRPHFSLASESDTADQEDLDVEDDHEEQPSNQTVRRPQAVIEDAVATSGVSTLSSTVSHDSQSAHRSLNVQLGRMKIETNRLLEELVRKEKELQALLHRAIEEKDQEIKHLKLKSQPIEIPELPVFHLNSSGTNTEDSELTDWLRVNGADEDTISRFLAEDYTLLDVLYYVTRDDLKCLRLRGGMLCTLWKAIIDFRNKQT
T10 sequence (P35968 20-1356): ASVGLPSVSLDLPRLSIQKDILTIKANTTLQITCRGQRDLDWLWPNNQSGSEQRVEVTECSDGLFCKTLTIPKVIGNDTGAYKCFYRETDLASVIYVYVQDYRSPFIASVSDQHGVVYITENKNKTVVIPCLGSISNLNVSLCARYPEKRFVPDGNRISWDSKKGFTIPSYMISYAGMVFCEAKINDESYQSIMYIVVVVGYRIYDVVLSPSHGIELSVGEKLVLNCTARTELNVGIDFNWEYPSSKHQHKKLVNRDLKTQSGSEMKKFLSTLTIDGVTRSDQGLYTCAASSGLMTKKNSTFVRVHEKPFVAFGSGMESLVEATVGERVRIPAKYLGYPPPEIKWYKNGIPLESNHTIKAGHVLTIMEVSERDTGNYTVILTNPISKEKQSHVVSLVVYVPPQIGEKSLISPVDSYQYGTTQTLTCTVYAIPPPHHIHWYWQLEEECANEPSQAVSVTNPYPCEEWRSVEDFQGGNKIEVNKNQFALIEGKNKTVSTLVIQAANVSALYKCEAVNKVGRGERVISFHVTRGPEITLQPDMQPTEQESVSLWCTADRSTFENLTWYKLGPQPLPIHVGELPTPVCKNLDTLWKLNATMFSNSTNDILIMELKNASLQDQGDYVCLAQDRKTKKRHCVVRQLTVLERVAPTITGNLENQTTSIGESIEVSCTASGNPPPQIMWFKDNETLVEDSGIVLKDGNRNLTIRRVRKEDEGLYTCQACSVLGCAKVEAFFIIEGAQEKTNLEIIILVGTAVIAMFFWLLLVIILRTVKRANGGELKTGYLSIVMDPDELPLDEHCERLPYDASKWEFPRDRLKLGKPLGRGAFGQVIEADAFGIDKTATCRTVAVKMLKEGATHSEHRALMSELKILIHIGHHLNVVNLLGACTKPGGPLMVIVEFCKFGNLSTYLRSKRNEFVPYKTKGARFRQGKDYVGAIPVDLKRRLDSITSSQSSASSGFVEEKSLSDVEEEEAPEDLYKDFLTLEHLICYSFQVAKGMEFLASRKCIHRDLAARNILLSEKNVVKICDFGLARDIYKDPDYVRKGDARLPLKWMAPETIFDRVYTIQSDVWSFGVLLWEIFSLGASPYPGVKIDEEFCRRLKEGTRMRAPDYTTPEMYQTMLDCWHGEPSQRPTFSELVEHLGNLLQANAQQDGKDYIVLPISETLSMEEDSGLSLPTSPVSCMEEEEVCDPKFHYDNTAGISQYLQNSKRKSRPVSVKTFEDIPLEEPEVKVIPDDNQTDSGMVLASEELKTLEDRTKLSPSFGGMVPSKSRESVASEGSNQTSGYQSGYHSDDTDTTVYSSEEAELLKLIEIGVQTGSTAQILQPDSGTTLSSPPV
T13 sequence (Q9HBH9 whole entry): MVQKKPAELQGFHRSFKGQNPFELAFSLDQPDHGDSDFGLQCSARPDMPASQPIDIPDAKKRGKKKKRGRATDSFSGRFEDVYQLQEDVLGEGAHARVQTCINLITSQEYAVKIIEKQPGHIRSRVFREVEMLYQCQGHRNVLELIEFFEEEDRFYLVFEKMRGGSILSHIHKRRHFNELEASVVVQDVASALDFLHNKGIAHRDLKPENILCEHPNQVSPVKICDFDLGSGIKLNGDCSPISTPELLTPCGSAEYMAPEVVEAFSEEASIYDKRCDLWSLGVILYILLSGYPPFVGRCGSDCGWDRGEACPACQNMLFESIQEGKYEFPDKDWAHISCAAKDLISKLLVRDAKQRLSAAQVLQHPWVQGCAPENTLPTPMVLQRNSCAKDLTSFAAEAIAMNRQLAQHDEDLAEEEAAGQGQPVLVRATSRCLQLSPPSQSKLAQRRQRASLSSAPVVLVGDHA
T1 sequence (P36896 24-505): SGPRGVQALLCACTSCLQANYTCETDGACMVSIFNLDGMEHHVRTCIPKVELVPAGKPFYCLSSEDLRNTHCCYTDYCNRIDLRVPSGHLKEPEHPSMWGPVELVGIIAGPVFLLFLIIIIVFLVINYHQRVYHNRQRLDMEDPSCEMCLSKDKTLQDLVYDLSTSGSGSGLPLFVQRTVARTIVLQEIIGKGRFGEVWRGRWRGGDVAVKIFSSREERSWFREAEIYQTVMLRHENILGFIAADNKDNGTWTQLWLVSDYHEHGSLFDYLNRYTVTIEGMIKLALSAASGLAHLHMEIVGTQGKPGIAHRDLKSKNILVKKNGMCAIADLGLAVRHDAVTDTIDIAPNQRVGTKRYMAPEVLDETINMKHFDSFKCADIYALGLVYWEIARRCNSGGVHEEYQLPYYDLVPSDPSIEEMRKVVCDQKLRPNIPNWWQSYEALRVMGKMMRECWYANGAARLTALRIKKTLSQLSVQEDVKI
T7 sequence (P19784 whole entry): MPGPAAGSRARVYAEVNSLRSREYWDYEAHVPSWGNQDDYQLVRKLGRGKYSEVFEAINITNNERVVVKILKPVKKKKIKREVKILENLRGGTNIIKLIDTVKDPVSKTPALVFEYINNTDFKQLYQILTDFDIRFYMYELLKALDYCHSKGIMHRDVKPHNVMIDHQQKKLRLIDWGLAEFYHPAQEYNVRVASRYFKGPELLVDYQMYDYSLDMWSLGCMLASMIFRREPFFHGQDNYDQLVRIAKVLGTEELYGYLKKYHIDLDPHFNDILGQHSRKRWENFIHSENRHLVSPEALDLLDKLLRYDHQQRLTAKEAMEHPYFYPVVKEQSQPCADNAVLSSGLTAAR
T9 sequence (P51956 whole entry): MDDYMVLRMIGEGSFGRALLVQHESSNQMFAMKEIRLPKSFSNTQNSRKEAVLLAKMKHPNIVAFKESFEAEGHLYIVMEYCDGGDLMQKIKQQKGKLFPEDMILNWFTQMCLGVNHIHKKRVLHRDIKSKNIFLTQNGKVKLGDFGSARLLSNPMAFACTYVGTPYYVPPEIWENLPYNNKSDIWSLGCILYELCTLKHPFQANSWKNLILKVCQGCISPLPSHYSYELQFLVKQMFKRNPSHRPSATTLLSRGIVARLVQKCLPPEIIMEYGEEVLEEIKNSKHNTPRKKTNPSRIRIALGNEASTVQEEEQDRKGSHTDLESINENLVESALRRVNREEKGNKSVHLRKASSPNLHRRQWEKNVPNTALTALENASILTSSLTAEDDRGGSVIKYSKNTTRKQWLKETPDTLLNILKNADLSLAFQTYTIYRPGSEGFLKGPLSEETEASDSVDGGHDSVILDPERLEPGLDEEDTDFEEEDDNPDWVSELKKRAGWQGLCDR

With `Brc1ccc2nccc(Nc3ccc4cn[nH]c4c3)c2c1` [Compound 35, 6-Bromo-N-(1H-indazol-6-yl)quinolin-4-amine], the activity at 1 µM was 100% on ACVR1B; 100% on PIK3CA; 81% on ULK3; 100% on FGFR1; 97% at RET(V804L); 79% at EGFR(E746-A750del). In addition, the activity at 1 µM on CSNK2A2 was determined as 100%; at ASK1 it was 100%; on NEK3, 89%; at VEGFR2, 100%; at CHEK2 it was 65%; in experiment [1], 100%. The activity at 1 µM worked out at 63% on MKNK2, 100% at PRKD1, 82% on TRKC and 97% at SRC.
